This is an account of results in patent publication US20240368135A1 (VERTEX PHARMACEUTICALS INCORPORATED, priority 2021, published 2024).

Sequence of human NaV 1.8 (Q9Y5Y9 126-399 limits assumed): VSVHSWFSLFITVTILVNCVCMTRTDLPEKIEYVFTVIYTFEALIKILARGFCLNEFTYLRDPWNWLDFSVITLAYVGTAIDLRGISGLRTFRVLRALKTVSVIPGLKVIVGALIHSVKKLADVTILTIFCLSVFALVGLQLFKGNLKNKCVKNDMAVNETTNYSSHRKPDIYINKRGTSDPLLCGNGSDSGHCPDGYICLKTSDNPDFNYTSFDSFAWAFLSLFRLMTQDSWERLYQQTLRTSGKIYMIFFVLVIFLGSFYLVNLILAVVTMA
Sequence of human NaV 1.8 (Q9Y5Y9 660-890 limits assumed): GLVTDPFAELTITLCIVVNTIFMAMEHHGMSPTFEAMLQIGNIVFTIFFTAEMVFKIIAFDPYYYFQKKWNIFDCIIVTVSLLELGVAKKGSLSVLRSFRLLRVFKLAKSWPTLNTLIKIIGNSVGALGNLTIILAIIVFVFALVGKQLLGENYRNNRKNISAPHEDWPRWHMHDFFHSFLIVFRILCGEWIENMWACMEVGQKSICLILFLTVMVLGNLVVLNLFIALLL
Sequence of human NaV 1.8 (Q9Y5Y9 1148-1722 limits assumed): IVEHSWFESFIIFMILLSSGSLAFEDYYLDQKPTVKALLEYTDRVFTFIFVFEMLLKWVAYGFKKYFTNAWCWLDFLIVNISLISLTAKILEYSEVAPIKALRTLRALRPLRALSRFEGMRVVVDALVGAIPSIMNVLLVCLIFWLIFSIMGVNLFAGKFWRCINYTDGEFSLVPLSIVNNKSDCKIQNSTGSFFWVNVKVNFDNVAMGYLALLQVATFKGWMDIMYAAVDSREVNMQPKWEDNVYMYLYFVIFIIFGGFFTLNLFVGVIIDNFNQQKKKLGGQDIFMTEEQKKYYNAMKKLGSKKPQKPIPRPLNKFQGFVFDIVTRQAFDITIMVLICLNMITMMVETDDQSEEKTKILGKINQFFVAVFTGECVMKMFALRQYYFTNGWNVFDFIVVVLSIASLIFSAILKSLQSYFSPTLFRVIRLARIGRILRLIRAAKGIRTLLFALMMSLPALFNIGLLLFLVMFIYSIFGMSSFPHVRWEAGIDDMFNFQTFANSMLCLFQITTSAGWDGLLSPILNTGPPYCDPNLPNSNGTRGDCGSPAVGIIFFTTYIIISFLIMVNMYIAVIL

For the first test, the target named is human NaV 1.8 (Homo sapiens, UniProt Q9Y5Y9). The test can be described thus: E-VIPR assay detecting and measuring NaV inhibition properties. The format is cell-based. Particulars: HEK cells expressing truncated human NaV 1.8; in the presence of human serum (compound numbers followed by *); read-out: IC50 in the E-VIPR Assay, performed in the presence of human serum. In outline:
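Membrane potential was followed by coumarin/oxonol FRET during electrical field stimulation of matrigel-seeded HEK cells carrying truncated human NaV1.8 plus KIR2.1. Dosing used 11 points, 3-fold steps, top 300 nM final, 0.625% DMSO, with or without 25% human serum.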
Turning to `C[C@H]1[C@@H](c2ccc(F)c(F)c2OC(F)F)[C@H](C(=O)Nc2cncc(C#N)c2)O[C@@]1(C)C(F)(F)F` (single isomer, unassigned) [Compound 70], the IC50 – broadly, the point on the concentration scale where inhibition reaches its midpoint – is 100 to 1000 nM.

The same test, now with this note: HEK cells expressing truncated human NaV 1.8; no human serum; read-out: IC50 in the E-VIPR Assay.
`COc1c([C@H]2[C@H](C(=O)Nc3ccc(-c4cnco4)nc3)O[C@@](C)(C(F)(F)F)[C@H]2C)ccc(F)c1F` [Compound 394, (2R,3S,4S,5R)-3-(3,4-difluoro-2-methoxyphenyl)-4,5-dimethyl-N-(6-(oxazol-5-yl)pyridin-3-yl)-5-(trifluoromethyl)-tetrahydrofuran-2-carboxamide]: the IC50 lay in the range of 100 to 1000 nM. The same measure, in the same setting: in the case of `COc1c([C@H]2[C@H](C(=O)Nc3ccc(NC(C)=O)nc3)O[C@@](C)(C(F)(F)F)[C@H]2C)ccc(F)c1F` [Compound 525, (2R,3S,4S,5R)-N-(6-acetamido-3-pyridyl)-3-(3,4-difluoro-2-methoxy-phenyl)-4,5-dimethyl-5-(trifluoromethyl)tetrahydrofuran-2-carboxamide] it was 10 to 100 nM; in that of `COc1c([C@H]2[C@H](C(=O)Nc3ccc4nc(C(=O)N(C)C)cn4c3)O[C@@](C)(C(F)(F)F)[C@H]2C)ccc(F)c1F` [Compound 261, 6-((2R,3S,4S,5R)-3-(3,4-difluoro-2-methoxyphenyl)-4,5-dimethyl-5-(trifluoromethyl)tetrahydrofuran-2-carboxamido)-N,N-dimethylimidazo[1,2-a]pyridine-2-carboxamide], 10 to 100 nM.

As to `Cc1ncc(C2CCOC2)cc1NC(=O)[C@@H]1O[C@@](C)(C(F)(F)F)[C@@H](C)[C@H]1c1ccc(F)c(F)c1OCCO` (stereo partly drawn) [Compound 551, (2R,3S,4S,5R)-3-(3,4-difluoro-2-(2-hydroxyethoxy)phenyl)-4,5-dimethyl-N-(2-methyl-5-(tetrahydrofuran-3-yl)pyridin-3-yl)-5-(trifluoromethyl)tetrahydrofuran-2-carboxamide], the IC50 is at least 1000 nM. The same measure, in the same setting: in the case of `COc1c([C@H]2[C@H](C(=O)Nc3cc(C4(N)COC4)ncc3F)O[C@@](C)(C(F)(F)F)[C@H]2C)ccc(F)c1F` [Compound 341, (2R,3S,4S,5R)-N-(2-(3-aminooxetan-3-yl)-5-fluoropyridin-4-yl)-3-(3,4-difluoro-2-methoxyphenyl)-4,5-dimethyl-5-(trifluoromethyl)-tetrahydrofuran-2-carboxamide] it was under 10 nM; in that of `COc1c([C@H]2[C@H](C(=O)Nc3ccnc(N4C(=O)CN5CCC4CC5)c3)O[C@@](C)(C(F)(F)F)[C@H]2C)ccc(F)c1F` [Compound 468, (2R,3S,4S,5R)-3-(3,4-difluoro-2-methoxyphenyl)-4,5-dimethyl-N-(2-(3-oxo-1,4-diazabicyclo[3.2.2]nonan-4-yl)pyridin-4-yl)-5-(trifluoromethyl)tetrahydrofuran-2-carboxamide], 10 to 100 nM.

For `COc1c([C@@H]2[C@@H](C(=O)Nc3ccc(C(N)=O)nc3)O[C@](C)(C(F)(F)F)[C@@H]2C)cccc1C(F)(F)F` (stereo in doubt) [Compound 157, rel-5-((2S,3R,4R,5S)-3-(2-methoxy-3-(trifluoromethyl)phenyl)-4,5-dimethyl-5-(trifluoromethyl)tetrahydrofuran-2-carboxamido)picolinamide], the half-inhibitory concentration (IC50) is at least 1000 nM. Still for that read-out and setting: in the case of `COc1c(C2C(C(=O)Nc3cncnc3)OC(C)(C(F)(F)F)C2C)ccc(F)c1F` (single isomer, unassigned) [Compound 37, 3-(3,4-difluoro-2-methoxy-phenyl)-4,5-dimethyl-N-pyrimidin-5-yl-5-(trifluoromethyl)tetrahydrofuran-2-carboxamide] it was at least 1000 nM; in that of `COc1c(C2C(C(=O)Nc3ccnc(C(C)(C)O)c3)OC(C)(C(F)(F)F)C2C)ccc(F)c1F` (single isomer, unassigned) [Compound 48, 3-(3,4-difluoro-2-methoxy-phenyl)-N-[2-(1-hydroxy-1-methyl-ethyl)-4-pyridyl]-4,5-dimethyl-5-(trifluoromethyl)tetrahydrofuran-2-carboxamide], under 10 nM; in that of `COc1c([C@@H]2[C@@H](C(=O)Nc3ccc(C(F)F)nc3)O[C@](C)(C(F)(F)F)[C@@H]2C)ccc(F)c1C(F)F` (single isomer, unassigned) [Compound 164], at least 1000 nM. In the case of `COc1c([C@H]2[C@H](C(=O)Nc3ccnc(O[C@H]4COC[C@H]4O)c3)O[C@@](C)(C(F)(F)F)[C@H]2C)ccc(F)c1F` (single isomer, unassigned) [Compound 240, rel-(2R*,3S*,4S*,5R*)-3-(3,4-difluoro-2-methoxyphenyl)-N-(2-(((3S,4R)-4-hydroxytetrahydrofuran-3-yl)oxy)pyridin-4-yl)-4,5-dimethyl-5-(trifluoromethyl)tetrahydrofuran-2-carboxamide], the IC50 is under 10 nM. For the compound `Cc1nn(C(F)F)cc1NC(=O)[C@@H]1O[C@@](C)(C(F)(F)F)[C@@H](C)[C@H]1c1ccc(F)c(F)c1CN(C)C1CCOCC1` [Compound 669, (2R,3S,4S,5R)-3-(3,4-difluoro-2-((methyl(tetrahydro-2H-pyran-4-yl)amino)methyl)phenyl)-N-(1-(difluoromethyl)-3-methyl-1H-pyrazol-4-yl)-4,5-dimethyl-5-(trifluoromethyl)tetrahydrofuran-2-carboxamide], the IC50 lay within 10 to 100 nM. Regarding `COCCOc1c([C@H]2[C@H](C(=O)Nc3ccnc(C(O)CO)c3)O[C@@](C)(C(F)(F)F)[C@H]2C)ccc(F)c1F` (stereo partly drawn) [Compound 647, (2R,3S,4S,5R)-3-[3,4-difluoro-2-(2-methoxyethoxy)phenyl]-N-[2-(1,2-dihydroxyethyl)-4-pyridyl]-4,5-dimethyl-5-(trifluoromethyl)tetrahydrofuran-2-carboxamide], the IC50 is under 10 nM. On the same count and under the same terms, in the case of `COc1c([C@H]2[C@H](C(=O)Nc3cc(C[C@H](O)CO)n(C)n3)O[C@@](C)(C(F)(F)F)[C@H]2C)ccc(F)c1F` [Compound 5, (2R,3S,4S,5R)-3-(3,4-difluoro-2-methoxyphenyl)-N-(5-((S)-2,3-dihydroxypropyl)-1-methyl-1H-pyrazol-3-yl)-4,5-dimethyl-5-(trifluoromethyl)tetrahydrofuran-2-carboxamide] it was 10 to 100 nM; in that of `COCCNCc1cc(NC(=O)C2OC(C)(C(F)(F)F)C(C)C2c2ccc(F)c(F)c2OC)ccn1` (stereo not drawn) [Compound 59, 3-(3,4-difluoro-2-methoxy-phenyl)-N-[2-[(2-methoxyethylamino)methyl]-4-pyridyl]-4,5-dimethyl-5-(trifluoromethyl)tetrahydrofuran-2-carboxamide], at least 1000 nM. Take `COc1c(C2C(C(=O)Nc3cncnc3)OC(C)(C(F)(F)F)C2C)ccc(F)c1F` (single isomer, unassigned) [Compound 38, 3-(3,4-difluoro-2-methoxy-phenyl)-4,5-dimethyl-N-pyrimidin-5-yl-5-(trifluoromethyl)tetrahydrofuran-2-carboxamide]: the IC50 was under 10 nM. Same read-out and setting: with `Cc1c(F)ccc([C@@H]2[C@@H](C(=O)Nc3ccn(C)c(=O)c3)O[C@](C)(C(F)(F)F)[C@@H]2C)c1OC(F)F` (stereo in doubt) [Compound 99, rel-(2S,3R,4R,5S)-3-(2-(difluoromethoxy)-4-fluoro-3-methylphenyl)-4,5-dimethyl-N-(1-methyl-2-oxo-1,2-dihydropyridin-4-yl)-5-(trifluoromethyl)tetrahydrofuran-2-carboxamide] the figure was at least 1000 nM.
